# Patent publication US20110212484A1, “In Vitro Model of Focal Ischemia” (priority 2008, published 2011)
# How the values were obtained:
# rat brain slices = test: In vitro focal ischemia (focal OGD) in brain slices, TTC staining of infarct area; type: cell-based; conditions: 100 μM lidocaine added to OGD media, focally applied 2 hours at 100 μL/min, TTC stain
# Description: In order to mimic in vivo focal ischemia in the present in vitro system, oxygen-glucose deprived (OGD) medium was focally applied to a small area (0.25-0.5 mm wide or 5-10% of cortex) within the cortex of a brain slice, or within a slice of liver or heart tissue. […] Oxygen was displaced from the media by bubbling with 95% N2 and 5% CO2. […] Nozzle of the microperfusion system was made from a 23 gauge stainless steel tube and was mounted to a micromanipulator in order to ensure accurate placement. Using the micromanipulator the nozzle was lowered until it was just touching the surface of the slice. […] In FIG. 1C, OGD solution was focally applied to the slice for 1 hour. […] In FIG. 1D, OGD solution was focally applied to the slice for 2 hours.
# [1] = tested on: cortical neurons adjacent to the region of focal OGD perfusion; test: Penumbra region of focal ischemia: intracellular recordings of membrane potential adjacent to the focal OGD perfusion; type: cell-based, rat
# Description: In order to mimic in vivo focal ischemia in the present in vitro system, oxygen-glucose deprived (OGD) medium was focally applied to a small area (0.25-0.5 mm wide or 5-10% of cortex) within the cortex of a brain slice, or within a slice of liver or heart tissue. […] The OGD medium for liver and heart slices was deoxygenated, glucose-free Krebs solution. Oxygen was displaced from the media by bubbling with 95% N2 and 5% CO2. […] Nozzle of the microperfusion system was made from a 23 gauge stainless steel tube and was mounted to a micromanipulator in order to ensure accurate placement. Using the micromanipulator the nozzle was lowered until it was just touching the surface of the slice.
# OGD solution was focally perfused onto rat brain slices bathed in oxygenated aCSF solution. […] A representative recording of membrane potential is depicted in FIG. 5A. Focal perfusion of OGD caused neurons outside the region of perfusion to progressively depolarize. When edaravone (100 μM) was added to the OGD media this depolarization was attenuated. This is reflected in the mean data (FIG. 5B). Percentage neuronal survival after 75 minutes is reflected in FIG. 5C. Neurons were considered “dead” if they became irreversibly depolarized to approximately 0 mV. The addition of 100 μM edaravone doubled neuronal survival from OGD. […] In FIG. 5 the * denotes p<0.05.
# cortical neurons = test: Focal glutamate perfusion of brain slices, intracellular recordings of membrane potential; conditions: aCSF containing 20 mM glutamate focally applied at 100 μL/min, neurons within the region of focal perfusion
compound,measurement,setting,value
"CCN(CC)CC(=O)Nc1c(C)cccc1C [Lidocaine, lidocaine]",area of cell death caused by OGD,rat brain slices,reduced the area of cell death
CC1=NN(c2ccccc2)C(=O)C1 [edaravone],progressive depolarization of neurons outside the region of perfusion,"[1]; 100 μM edaravone added to OGD media, approximately 0.9 mm from focal perfusion",attenuated
same,neuronal survival from OGD,"[1]; 100 μM edaravone, after 75 minutes, penumbra region",doubled
N[C@@H](CCC(=O)O)C(=O)O [glutamate],membrane potential of neuron (depolarization),cortical neurons,caused a rapid depolarization of the neuron
